Experiment [1] deals with BMP signaling (phosphorylated Smad1/5, p38, Erk1/2). Briefly: Immunoblotting of phosphorylated Smad1/5, p38 and Erk1/2 in ATDC5 cells / primary chondrocytes. It is filed as cell-based, mouse. The conditions noted are these: in the presence of 10 ng/mL rhBMP-2; each dose tested. As for the experimental part:
ATDC5 cells were grown until approximately 70% confluence in Dulbecco's modified Eagle's medium/Ham's nutrient mixture F-12 containing 5% fetal bovine serum (FBS). After serum deprivation (0.3% FBS) for 16 hours, cultures were treated with rhBMP-2 and/or retinoids for 60 minutes and then lysed in SDS-PAGE sample buffer. Cell lysates were denatured, separated onto 10% SDS-page gels and transferred to PVDF membranes (Millipore™, USA). Membranes were incubated overnight at 4° C. with antibodies against phospho-Smad1/5 (Cell Signaling Technology™, 9516, 1:1000), phospho-Smad1/5/8 (Cell Signaling Technology™, 9511, 1:1000), phospho-Erk1/2 (Cell Signaling Technology™, 4370, 1:500), or phospho-p38 (Cell Signaling Technology™, 4511, 1:500), followed by incubation with horseradish peroxidase (HRP)-conjugated secondary antibody (Cell Signaling Technology™, 7074, 1:2000). HRP activity was detected using a SuperSignal™ West Dura Extended Duration Substrate (Thermo Scientific™, USA). Membranes were re-blotted with antibodies against GAPDH (Santa Cruz Biotechnology™, sc-32233, 1:1000) for loading normalization.
RARγ was examined for whether it has cell-autonomous roles on BMP signaling in chondrocytes. […] Levels of phosphorylated Smad1/5, p38 and Erk1/2 were analyzed by immunoblotting. […]
Background: In western blotting, separated proteins are transferred to a membrane and probed.

Experiment [2] concerns canonical BMP signaling reporter Id1-Luc. The experiment in a line: Id1-luc reporter assay in primary chondrocytes. Format: cell-based, mouse. As for the experimental part:
(§1) Primary mouse epiphyseal chondrocytes were isolated from neonatal C57BL/6J mice according to known methods (Yasuhara et al., Lab. Invest. 91(12):1739-1752, 2011) and were plated on 48- or 96-well plates and serum-starved overnight. Cultures were co-transfected with canonical BMP signaling reporter Id1-Luc or retinoic acid response element (RARE)-Luc plasmids and phRG-TK (Promega™) using Lipofectamine LTX™ and Plus™ reagent (Invitrogen™) according to the manufacturer's protocol. Twenty four hours later, cells were treated with rhBMP-2 and/or retinoid and incubated for an additional 24 hours. Cells then were harvested and subjected to dual luciferase assay (Promega™). Firefly luciferase activity was normalized to renilla luciferase activity generated by phRG-TK.
Enhancement of BMP-Smad signaling by RARγ antagonists was confirmed by Id1-luc reporter assays. Cells were treated with the indicated doses of CD2665 or MM11253 in the absence or presence of 10 ng/mL rhBMP-2.
A general note: In a reporter assay the amount or activity of a reporter protein is the signal.

Experiment [3] relates to retinoic acid response element (RARE)-Luc. The experiment in a line: RARE-luc reporter assay in primary mouse chondrocytes. It is filed as cell-based. The conditions noted are these: 10 nM RA added, 0.3% FBS DMEM. On the procedure:
as §1
Monitoring activity of RARγ antagonists by RARE reporter assay. Cells were treated with indicated doses of CD2665 or MM11253. To detect the effect of RARγ antagonists in retinoid deficient culture condition (0.3% FBS DMEM), 10 nM RA was added to all cultures in experiments reported in FIG. 8A, FIG. 8B and FIG. 8C.
Primary mouse chondrocytes were isolated and transfected with the RARE-luc reporter gene by reverse transfection according to known methods. Details of the procedure are described in Cong et al., J. Biomater. Sci. Polym. Ed. 26(11):629-643, 2015. […]

The text below walks through data of patent US11833256B2, “Selective RARγ ligand-loaded nanoparticles for manipulation of targeted bone growth” (University Of Maryland, Baltimore, priority 2017, dated 2023).

Turning to `COCCOCOc1cc2ccc(-c3ccc(C(=O)O)cc3)cc2cc1C12CC3CC(CC(C3)C1)C2` [CD2665], the “pSmad1/5/8 levels (immunoblot)” value in experiment [1] is given as “significantly enhanced”. For the same compound, the figures for the Id1-luc reporter activity result in experiment [2] (absence of exogenous rhBMP-2) and in experiment [2] (presence of 10 ng/mL rhBMP-2) were “slightly increased” and “significantly enhanced”, respectively. For the same compound, in experiment [3], the “RARE-luc reporter activity (antagonists)” value was “inhibited RARE-luc reporter activity”.

In the case of `CC1(C)CCC(C)(C)c2cc(C3(c4ccc5cc(C(=O)O)ccc5c4)SCCS3)ccc21` [MM11253], the “pSmad1/5/8 levels (immunoblot)” value in experiment [1] is “significantly enhanced”. Further, the results for the Id1-luc reporter activity result in experiment [2] (absence of exogenous rhBMP-2) and in experiment [2] (presence of 10 ng/mL rhBMP-2) were “slightly increased” and “significantly enhanced”, respectively. Further, in experiment [3], the “RARE-luc reporter activity (antagonists)” value is “inhibited RARE-luc reporter activity”.
